System: PDE4
Experiment: Inhibition of PDE4 activity (method of Bauer and Schwabe, adapted to microtiter plates)
Format: biochemical
Details: inhibitory concentration as −log IC50 (mol/l)
Protocol: The activity test was carried out according to the method of Bauer and Schwabe, which was adapted to microtiter plates (Naunyn-Schmiedeberg's Arch. Pharmacol. 1980, 311, 193-198). The PDE reaction takes place in the first step here. In a second step, the resulting 5′-nucleotide is cleaved by a 5′-nucleotidase of the snake venom of Crotalus atrox to the uncharged nucleoside. In the third step, the nucleoside is separated from the remaining charged substrate on ion-exchange columns. The columns are eluted directly into minivials, into which 2 ml of scintillator fluid are additionally added, for counting using 2 ml of 30 mM ammonium formate (pH 6.0).
The inhibitory values determined for the compounds according to the invention [inhibitory concentration as −log Ic50 (mol/l)] follow from the following Table A, in which the numbers of the compounds correspond to the numbers of the examples.

COc1cc2c(cc1OC)[C@@H]1CCCC[C@@H]1N=C2c1ccc(OCc2ccccc2)c(OCC2CC2)c1 [Compound 10, (−)-cis-6-(4-Benzyloxy-3-cyclopropylmethoxyphenyl)-8,9-dimethoxy-1,2,3,4,4a,10b-hexahydrophenanthridine]
−log IC50, inhibition of the PDE4 activity: 8.09

COc1cc2c(cc1OC)C1CCCCC1N=C2c1ccc(C(=O)N2CCCCC2)cc1 (single isomer, unassigned; (-)) [Compound 16, (−)-cis-8,9-Dimethoxy-[4-(piperdin-1-ylcarbonyl)phenyl]-1,2,3,4,4a,10b-hexahydrophenanthridine]
−log IC50, inhibition of the PDE4 activity: 8.02

COc1cc2c(cc1OC)[C@@H]1CCCC[C@@H]1N=C2c1cccc(OS(=O)(=O)c2ccc(C)cc2)c1 [Compound 14, (−)-cis-8,9-Dimethoxy-6-[3-(p-toluenesulfonyloxy)phenyl)-1,2,3,4,4a,10b-hexahydrophenanthridine]
−log IC50, inhibition of the PDE4 activity: 8.44

COc1cc2c(cc1OC)[C@@H]1CCCC[C@@H]1N=C2c1cccc(OCCc2ccccc2)c1 [Compound 8, (−)-cis-8,9-Dimethoxy-6-(3-phenethyloxyphenyl)-1,2,3,4,4a,10b-hexahydrophenanthridine]
−log IC50, inhibition of the PDE4 activity: 8.41

COc1cc2c(cc1OC)C1CCCCC1N=C2c1ccc(OC)c(OC2CCC2)c1 (single isomer, unassigned; (-)) [Compound 44, (−)cis-8,9-Dimethoxy-6-[(3-cyclobutoxy-4-methoxy)phenyl]-1,2,3,4,4a,10b-hexahydrophenanthridine]
−log IC50, inhibition of the PDE4 activity: 7.58

COc1cc2c(cc1OC)C1CCCCC1N=C2c1ccc(OCC2CC2)c(OCC2CC2)c1 (single isomer, unassigned; (-)) [Compound 15, (−)-cis-8,9-Dimethoxy-6-[3,4-bis-(cyclopropylmethoxy)phenyl]-i,2,3,4,4a,10b-hexahydrophenanthridine]
−log IC50, inhibition of the PDE4 activity: 7.89

CCOc1ccc(C2=N[C@H]3CCCC[C@H]3c3cc(OC)c(OC)cc32)cc1OCC1CC1 [Compound 38, (−)-cis-8,9-Dimethoxy-6-(3-cyclopropylmethoxy-4-ethoxyphenyl)-1,2,3,4,4a,10b-hexahydrophenanthridine]
−log IC50, inhibition of the PDE4 activity: 7.47

COc1cc2c(cc1OC)[C@@H]1CCCC[C@@H]1N=C2c1ccc(C(=O)c2ccccc2)cc1 [Compound 1, (−)-cis-8,9-Dimethoxy-6-(4-benzoylphenyl)-1,2,3,4,4a,10b-hexahydrophenanthridine]
−log IC50, inhibition of the PDE4 activity: 7.82

COc1cc2c(cc1OC)[C@@H]1CCCC[C@@H]1N=C2c1ccc(CN2CCOCC2)cc1 [Compound 21, (−)-cis-8,9-Dimethoxy-6-[4-(morpholin-4-ylmethyl)phenyl]-1,2,3,4,4a,10b-hexahydrophenanthridine]
−log IC50, inhibition of the PDE4 activity: 7.35

CCOc1cc2c(cc1OC)C(c1ccc(C(=O)c3ccccc3)cc1)=N[C@H]1CCCC[C@@H]21 [Compound 25, (−)-cis-9-Ethoxy-8-methoxy-6-(4-benzoylphenyl)-1,2,3,4,4a,10b-hexahydrophenanthridine]
−log IC50, inhibition of the PDE4 activity: 8.87

COc1cc2c(cc1OC)[C@@H]1CCCC[C@@H]1N=C2c1ccc(C(=O)c2ccc(C#N)cc2)cc1 [Compound 31, (−)-cis-8,9-Dimethoxy-6-[4-(4-cyanobenzoyl)phenyl]-1,2,3,4,4a,10b-hexahydrophenanthridine]
−log IC50, inhibition of the PDE4 activity: 7.8

COc1cc2c(cc1OC)[C@@H]1CCCC[C@@H]1N=C2c1cccc(S(=O)(=O)c2ccccc2)c1 [Compound 33, (−)-cis-8,9-Dimethoxy-6-[3-(phenylsulfonyl)phenyl]-1,2,3,4,4a,10b-hexahydrophenanthridine]
−log IC50, inhibition of the PDE4 activity: 8.23

COc1cc2c(cc1OC)[C@@H]1CCCC[C@@H]1N=C2c1ccc(C(=O)c2ccc(Cl)cc2)cc1 (relative stereo) [Compound 27, (−)-cis-8,9-Dimethoxy-6-[4-(4-chlorbenzoyl)phenyl]-1,2,3,4,4a,10b-hexahydrophenanthridine]
−log IC50, inhibition of the PDE4 activity: 7.3

Reference: US6476025B1, “Phenylphennanthridines with PDE-IV inhibiting activity” (Altana Pharma AG, priority 1999, dated 2002)
